“Also recorded” adds a separate entry of the source. Structures can show the parent of a compound that is named as a salt.
Tests used:
BELA cells [1] = assay: RhoNox-M (lysosomal Fe2+ probe) flow cytometry; assay type: cell-based; details: 10 μM, 24 h
Experimental: (§1) All cells were grown in an incubator equilibrated at 37° C. with 5% CO2, grown to confluence and split with Trypsin/EDTA (Gibco, TRYPGIB01) once or twice a week according to confluence. HMLER cells ([…]) naturally repressing E-cadherin, obtained from human mammary epithelial cells infected with a retrovirus carrying hTERT, SV40 and the oncogenic allele H-rasV12, and HMLER CD44 and TFRC ko clones were cultured in DMEM/F12 (Thermo Fisher Scientific, 31331093) supplemented with 10% FBS (v/v) (Thermo Fisher Scientific, 10270106), 10 μg/mL insulin (Sigma-Aldrich, 10516), 0.5 μg/mL hydrocortisone (Sigma-Aldrich, H0888) and 0.5 μg/ml puromycin (Life Technologies, A11138-02), unless stated otherwise. PDAC053 T cells were grown in serum-free ductal medium: DMEM/F12 supplemented with 0.61 g/500 mL nicotinamide (Sigma-Aldrich, 3376), 2.50 g/500 mL glucose (Sigma-Aldrich, G6152), 1:200 ITS+ (Corning, 354352), 1:20 Nu-serum IV (Corning, 355104), 100 ng/ml cholera toxin, 1 μM dexamethasone (Sigma-Aldrich, D4902), 50 nM 3,3′,5-triiodo-L-thyronine (Sigma-Aldrich, T6397) and 1× PenStrep. BELA cells were cultured using published procedures (Nat. Comm. doi: 10.1038/ncomms14750).
(§2) Bodipy-C11 (Thermo Fisher Scientific, D3861) were used according to the manufacturer's protocol. RhoNox-M (in-house) was added to live cells prior to flow cytometry analysis for 1 h at a concentration of 1 μM. For the Annexin/PI assay (Thermo Fisher Scientific, V13245, manufacturer's protocol) BELA cells were treated with RSL3 in the presence or absence of 1 μM Liproxstatin-1 (Sigma-Aldrich, SML1414) or 10 μM A3 for 24 h. Cells were then washed twice with ice-cold 1×PBS and suspended in incubation buffer prior to being analyzed by flow cytometry. The manufacturer's protocol was followed. For each condition, at least 10,000 cells were counted. Data were recorded on an Attune (Thermo Fisher Scientific) and processed using FlowJo (FLOWJO, LLC).

[2] = Cyclic voltammetry of FeCl3 after addition of compounds (FIG. 10b); assay type: binding; details: 1 mM FeCl3 in 0.3 M nBu4NBF4 in MeCN, scan rate 2 V/s
Experimental: Cyclic voltammetry experiments were performed with a three-electrode cell under argon. Saturated Calomel Electrode (SCE) was used as reference, a steady Glassy Carbon (GC) electrode of diameter 3 mm was selected as working electrode and a Platinum wire as counter-electrode. All cyclic voltammograms were recorded at RT with a μ-autolab III from Metrohm using Nova software with a scan rate of 2 V/s. MeCN was used as a degassed HPLC grade from Carlo Erba. Water was mQ H2O. Stock solution of FeCl3 (100 mM) and Lip-1, A3, A0 and DFO (20 mM) were prepared with 0.3 M nBu4NBF4 in MeCN. 1 mM FeCl3 in 0.3 M nBu4NBF4 in MeCN (1 mL) was used as working solution for recording and subsequently equivalents of compounds were added, stirred and recorded.

[3] = test system: Cells treated with a ferroptosis inducer; assay: BODIPY-C11 lipid peroxidation, cells treated with a ferroptosis inducer (FIG. 6a); assay type: cell-based; details: co-treatment with ferroptosis inducer
Experimental: as §2

PDAC cells [4] = assay: Cell apoptosis assay with Annexin V and propidium iodide, RSL3-treated PDAC cells (FIG. 10a); assay type: cell-based; details: RSL3 0.1, 0.5, 2, 10 μM, compounds 10 μM, 24 h
Experimental: (§3) Pancreatic Ductal Adenocarcinoma (PDAC) cells were grown at 37° C. and 5% CO2 using medium prepared based on previously described (https://doi.org/10.1053/j.gastro.2004.03.058).
PDAC cells were seeded on 6 well plates at the density of 2×10^5 cells/well. RSL3 (0.1, 0.5, 2, 10 µM) was added along with compounds (10 μM) on the following day and after 24 h, the media was recovered and the cells were typsinated. The cells were harvested, pelleted along with the media recovered, washed with PBS, and 100 μl of 1× annexin binding buffer containing annexin V and PI (according to the manufacturer's protocol Dead Cell Apoptosis Kits with Annexin V for Flow Cytometry (Invitrogen)). Finally, PBS buffer containing 10% FBS and 1 mM of EDTA, was added for flow cytometry.

HMLER cells [5] = assay: Click-chemistry fluorescence microscopy with LysoTracker co-staining, HMLER cells; assay type: cell-based, human; details: 1 μM, 3 h, LysoTracker 45 mins, Alexa-488-N3 click
Experimental: as §1
Fluorescence microscopy of clickable serotonin analog A3: Cells were plated on cover slips 24 h prior to the experiment. […]

[6] = test system: Cells treated with a ferroptosis inducer; assay: CellTiter-Blue cell viability with a ferroptosis inducer (FIG. 6b); assay type: cell-based; details: co-treatment with ferroptosis inducer
Experimental: Cell viability was evaluated by plating 4,000 cells/well in 96-well plates using CellTiter-Blue viability assay according to the manufacturer's protocol. CellTiter-Blue reagent (Promega, G8081) was added after 72 h treatment and cells were incubated for 2 h before recording fluorescence intensities (Eex. 560 nm; Eem. 590 nm) using a Perkin Elmer Wallac 1420 Victor2 Microplate Reader.

PDAC cells [7] = assay: Click-labelling fluorescence microscopy with LysoTracker and organelle antibodies, PDAC cells (FIG. 9); assay type: cell-based; details: 10 μM, 3 h
Experimental: Pancreatic Ductal Adenocarcinoma (PDAC) cells were grown at 37° C. and 5% CO2 using medium prepared based on previously described (https://doi.org/10.1053/j.gastro.2004.03.058). Cells were plated on cover slips 24 h prior to the experiment. The cells were treated with 10 µM of compounds for 3 h and LysoTracker Deep Red (ThermoFisher Scientific L12492, 1:10000) according to the manufacturer's protocol. Subsequently, cells were washed three times with 1×PBS and fixed with 2% paraformaldehyde (w/v) in 1×PBS for 12 min, and then washed three times with 1×PBS. After fixation, cells were permeabilized with 0.1% Triton X-100 (v/v) in 1×PBS for 5 min and washed three times with 1×PBS. Then, cells were blocked in 2% BSA, 0.2% Tween-20 (w/v)/1×PBS (blocking buffer) for 20 min at RT. The click reaction cocktail was prepared from Click-iT EdU Imaging Kits (ThermoFisher Scientific, C10337) according to the manufacturer's protocol. Briefly, 868 μL of 1× Click-iT reaction buffer was mixed with 40 μl CuSO4 solution, 2 μL Alexa Fluor azide and 90 μl reaction buffer additive (sodium ascorbate) to reach a final volume of 1 mL. Cover slips were incubated with 50 μl of the click reaction cocktail in the dark at RT for 30 minutes, then washed three times with 1×PBS. Further, cells were incubated with the relevant antibody in blocking buffer for 1 h at room temperature and washed three times with blocking buffer. Then, cells were incubated with secondary antibodies for 1 h. Finally, cover slips were washed three times with 1×PBS and mounted using VECTASHIELD (Vector Laboratories) containing DAPI and were sealed with nail varnish Express manucure (Maybelline, 16P201). Fluorescence images were acquired using a Deltavision real-time microscope (Applied Precision). 100×/1.4NA objectives were used for 2D and 3D acquisitions that were deconvoluted with SoftWorx (Ratio conservative-10 iterations, Applied Precision) and processed with ImageJ.

HMLER cells [8] = assay: ICP-MS of total cellular iron and copper; assay type: cell-based, human; details: 100 nM, 3 h or 24 h
Experimental: All cells were grown in an incubator equilibrated at 37° C. with 5% CO2, grown to confluence and split with Trypsin/EDTA (Gibco, TRYPGIB01) once or twice a week according to confluence. HMLER cells ([…]) naturally repressing E-cadherin, obtained from human mammary epithelial cells infected with a retrovirus carrying hTERT, SV40 and the oncogenic allele H-rasV12, and HMLER CD44 and TFRC ko clones were cultured in DMEM/F12 (Thermo Fisher Scientific, 31331093) supplemented with 10% FBS (v/v) (Thermo Fisher Scientific, 10270106), 10 μg/mL insulin (Sigma-Aldrich, 10516), 0.5 μg/mL hydrocortisone (Sigma-Aldrich, H0888) and 0.5 μg/ml puromycin (Life Technologies, A11138-02), unless stated otherwise. […]
Glass vials equipped with Teflon septa were cleaned with nitric acid 65% (w/v) (VWR, Suprapur, 1.00441.0250), washed with ultrapure water (Sigma-Aldrich, 1012620500) and dried. […] Cells were then counted using an automated cell counter (Entek) and transferred in 100 μL 1×PBS to the cleaned glass vials, and samples were lyophilized using a freeze dryer (CHRIST, 22080). […] 56Fe concentrations were measured using an Agilent 7900 ICP-QMS in low-resolution mode. […] Isotopes were measured using a collision-reaction interface with helium gas (5 mL/min) to remove polyatomic interferences. […]

[9] = Colorimetric assessment of metal complex formation in aqueous solution; assay type: binding; details: for colour of solution in the presence of FeCl3 and CuSO4, indicative of complex formation: aqueous solution, 3 equiv. compound, C=0.1 M; for complex formation with Fe(II), Fe(III) and Cu(II): colorimetric complexation studies in solution (FIG. 1) and NMR spectroscopy (FIG. 2)
Experimental: […] assessment of complex formation: To an aqueous solution of serotonin hydrochloride (3 equiv., C=0.1 M) or A3 formic salt (3 equiv., C=0.1 M) iron (III) chloride (1 equiv.) or copper (II) sulfate (C=0.1 M) was added. A color change characterized the formation of metal complexes.

BELA cells [10] = assay: Annexin/PI flow cytometry, RSL3-treated BELA cells (FIG. 7); assay type: cell-based; details: various concentrations of RSL3, 10 μM A3, 24 h
Experimental: as §2

PDAC cells [11] = assay: Anti-ferroptotic activity: BODIPY-C11 flow cytometry, PDAC cells co-treated with RSL3 (FIG. 8); assay type: cell-based; details: RSL3 200 nM, compounds 10 μM
Experimental: as §3
PDAC cells were seeded on 6 well plates at the density of 2×10^5 cells/well. RSL3 (200 nM) was added along with compounds (10 μM for screening) on the following day and after 23 hr, BODIPY (4 μM) was added for 1 hr. The media was removed and the cells were washed with PBS twice before typsinization. The cells were harvested, pelleted, washed with PBS and finally PBS buffer containing 10% FBS and EDTA, was added for flow cytometry. The results are shown in FIG. 8 and this enabled us to establish a robust structure activity relationship on the serotonin scaffold.

[12] = reference in cyclic voltammetry; cited from earlier work

C#CCNCCc1c[nH]c2ccc(O)cc12 [Compound A3]
RhoNox-M fluorescence (lysosomal Fe(II)) (BELA cells [1]): increase of RhoNox-M fluorescence
binding / chelation of Fe^3+ (cyclic voltammetry) [2]: chelates/binds to Fe^3+
lipid peroxidation (BODIPY-C11 fluorescence) induced by a ferroptosis inducer [3]: reduces lipid peroxidation; also recorded: reduction of lipid peroxidation
protection against RSL3-induced ferroptosis (Annexin/propidium iodide) (PDAC cells [4]): protects against RSL3-induced ferroptosis
localization in lysosomes (HMLER cells [5]): found to localize in lysosomes; also recorded: accumulate in lysosomes
cell viability / cell death caused by a ferroptosis inducer [6]: rescues cell death; also recorded: rescue of cell viability
localization in lysosomes (PDAC cells [7]): found to localize in lysosomes; also recorded: goes to lysosomes
colocalization with other cell organelles (PDAC cells [7]; organelle antibodies): not on other cell organelles; also recorded: doesn't colocalize with other cell organelles
total intracellular copper (ICP-MS) (HMLER cells [8]): increase
total intracellular iron (ICP-MS) (HMLER cells [8]): increase
colour of solution in the presence of FeCl3 and CuSO4, indicative of complex formation [9]: form differently colored solutions
complex formation with Fe(II), Fe(III) and Cu(II) [9]: form readily complexes
cell death induced by the ferroptosis inducer RSL3 (Annexin/propidium iodide) (BELA cells [10]): protects against RSL3-induced ferroptosis; also recorded: rescued cell death

C#CCOc1ccc2c(c1)c(CCN(CC#C)CC#C)cn2CC#C [Compound A0]
binding / chelation of Fe^3+ (cyclic voltammetry) [2]: doesn't binds to Fe^3+
anti-ferroptotic activity (active / inactive compound) (PDAC cells [11]): inactive
localization in lysosomes (PDAC cells [7]): doesn't go to lysosomes

C#CCN(CC#C)CCc1c[nH]c2ccc(O)cc12 [Compound A4]
anti-ferroptotic activity (active / inactive compound) (PDAC cells [11]): Active
localization in lysosomes (PDAC cells [7]): localized in lysosomes

CC(=O)N(O)CCCCCNC(=O)CCC(=O)N(O)CCCCCNC(=O)CCC(=O)N(O)CCCCCN [DFO]
Fe^3+ chelation, known property of the reference [12]: known Fe^3+ chelator

NCCc1c[nH]c2ccc(O)cc12 [Serotonin, serotonin hydrochloride]
colour of solution in the presence of FeCl3 and CuSO4, indicative of complex formation [9]: form differently colored solutions
complex formation with Fe(II), Fe(III) and Cu(II) [9]: form readily complexes

CCCCCCCCCCNCCc1c[nH]c2ccc(O)cc12 [LT262A]
RhoNox-M fluorescence (lysosomal Fe(II)) (BELA cells [1]): increase of RhoNox-M fluorescence

CC(CCCCCCC(C)NCCc1c[nH]c2ccc(O)cc12)NCCc1c[nH]c2ccc(O)cc12 (stereo not drawn) [LC357]
RhoNox-M fluorescence (lysosomal Fe(II)) (BELA cells [1]): increase of RhoNox-M fluorescence

Oc1ccc2[nH]cc(CCNC3CCCCC3)c2c1 [LC336]
RhoNox-M fluorescence (lysosomal Fe(II)) (BELA cells [1]): increase of RhoNox-M fluorescence

C#CCOc1ccc2[nH]cc(CCN(CC#C)CC#C)c2c1 [Compound A1]
anti-ferroptotic activity (active / inactive compound) (PDAC cells [11]): Active
localization in lysosomes (PDAC cells [7]): localized in lysosomes

CCCCNCCc1c[nH]c2ccc(O)cc12 [LT265B]
RhoNox-M fluorescence (lysosomal Fe(II)) (BELA cells [1]): increase of RhoNox-M fluorescence
